These results are taken from patent publication US8513234B2, “HIV integrase inhibitors” (Merck Sharp & Dohme Corp., priority 2008, dated 2013).

The structures appear in SMILES notation. pIC50: −log10 of the molar value.

One series has as its system wild type IIIB. The series can be described thus: Single cycle infectivity assay in HeLa P4-2 cells, wild type virus. In kind it is cell-based, HIV. The following applies: Human immunodeficiency virus 1, IIIB, HeLaP4-2, HeLa P4-2 cells, single cycle infectivity, wild type IIIB; read-out: wild type IIIB IC50.
A further series deals with HIV-1. The series is described as follows: Inhibition of acute HIV-1 infection of T-lymphoid cells (spread assay). In kind it is cell-based. As for the experimental part:
Assay for Inhibition of HIV-1 Replication
Assays for the inhibition of acute HIV-1 infection of T-lymphoid cells were conducted in accordance with Vacca, J. P. et al, Proc. Natl. Acad. Sci. USA 1994, 91: 4096.

Series [1] deals with T1, recombinant integrase (HIV-1 integrase) (Human immunodeficiency virus type 1 group M subtype B, UniProt P04585).
T1 construct: Assays for the strand transfer activity of integrase were conducted in accordance with WO 02/30930 for recombinant integrase
The series is described as follows: HIV-1 integrase assay: strand transfer catalyzed by recombinant integrase. Type of series: biochemical. The following applies: strand transfer activity, read-out: IC50. As for the experimental part: HIV-1 Integrase Assay: Strand Transfer Catalyzed by Recombinant Integrase
Assays for the strand transfer activity of integrase were conducted in accordance with WO 02/30930 for recombinant integrase. […] For example, the compounds prepared in Examples 1 to 5 were tested in the integrase assay and found to have the IC50 values in Table B. (Compounds 6A and 6B were not tested in this assay.)
Further description on conducting the assay using preassembled complexes is found in Wolfe, A. L. et al., J. Virol. 1996, 70: 1424-1432, Hazuda et al., J. Virol. 1997, 71: 7005-7011; Hazuda et al., Drug Design and Discovery 1997, 15: 17-24; and Hazuda et al., Science 2000, 287: 646-650.

The subject of series [2] is virus containing G140S/Q148H mutation in the integrase gene. The following applies: k = IC50(mutant)/IC50(wild type). As for the experimental part: (§1) An assay for measuring the inhibition of acute HIV infection with HeLa P4-2 cells in a single cycle infectivity assay was conducted using methods described in Joyce et al., J. Biol. Chem. 2002, 277: 45811, Hazuda et al., Science 2000, 287: 646, and Kimpton et al, J. Virol. 1992, 66: 2232. Proviral plasmids encoding viruses containing specific mutations in the integrase gene (N155H, Q148R, Y143R, E92Q, or G140S/Q148H) were generated by site-directed mutagenesis, and viruses were produced by transfecting 293T cells with the appropriate proviral plasmids.

In series [3] the test system is virus containing E92Q mutation in the integrase gene. The following applies: k = IC50(mutant)/IC50(wild type). The protocol: as §1
The subject of series [4] is virus containing N155H mutation in the integrase gene. The following applies: k = IC50(mutant)/IC50(wild type). The protocol:
as §1

In series [5] the test system is virus containing Y143R mutation in the integrase gene. As to conditions: k = IC50(mutant)/IC50(wild type). As for the experimental part:
as §1

In series [6] the test system is virus containing Q148R mutation in the integrase gene. The following applies: k = IC50(mutant)/IC50(wild type). As for the experimental part: as §1

The pIC50 is the negative decadic logarithm of the IC50, by convention in mol/L. Turning to `CO[C@]1(C)CC[C@@H](N(C)C(=O)C(=O)N(C)C)c2nc(C(=O)NCc3ccc(F)c(C)c3)c(O)c(=O)n2C1` [Compound 2A, N-((7R,10R)-2-{[(4-fluoro-3-methylbenzyl)amino]carbonyl}-3-hydroxy-7-methoxy-7-methyl-4-oxo-4,6,7,8,9,10-hexahydropyrimido[1,2-a]azepin-10-yl)-N,N′,N′-trimethylethanediamide], the negative logarithm of the IC50 (pIC50) in the series on wild type IIIB is 7.77; in series [1] it was 7.43. For the same molecule, in the series on HIV-1, the “IC95 (nM) in the presence of 10% FBS” value is reported as 14 nM. In series [2], the “Number of fold shift in IC50 versus wild type IIIB, G140S/Q148H” value is on record as 10. Further, the “Number of fold shift in IC50 versus wild type IIIB, E92Q” value in series [3] is recorded as 1. For the same molecule, the “Number of fold shift in IC50 versus wild type IIIB, N155H” value in series [4] is recorded as 2. In addition, in series [5], the “Number of fold shift in IC50 versus wild type IIIB, Y143R” value is on record as 2. The “Number of fold shift in IC50 versus wild type IIIB, Q148R” value in series [6] amounted to 1.
